In patent US10314831B2, “RAC1 inhibitors of neurofibroma formation” (Indiana University Research and Technology Corporation, priority 2014, dated 2019):

Columns and labels:
Rac1-GTP = molecular target: T1, Rac1-GTP (Mus musculus, UniProt P63001); test: PDGF-mediated Rac1-GTP activity in Nf1-/- Schwann cells (immunoprecipitation and activity assay); assay type: cell-based; details: murine-derived neurofibroma cells (Nf1-/- Schwann cells), 50 ng/mL PDGF for 2 minutes
T1 construct: endogenous in cells; host or cells: murine-derived Nf1-/- Schwann cells
Protocol: FIG. 2 depicts the inhibition of Rac1-GTP activity by compound C20-26. Compound C20-26 inhibits PDGF-mediated Rac1-GTP activity at 40 nM in murine-derived neurofibroma cells. After 24-hour starvation in 0.5% BSA/DMEM, Nf1−/−Schwann cells were pretreated with compound C20-26 at the indicated concentrations. Cells were then stimulated with 50 ng/mL PDGF for 2 minutes and harvested for immunoprecipitation.
(§1) FIGS. 3A-3C depicts various properties of compound C20. FIG. 3A) Compound C20 inhibits PDGF-mediated Rac1-GTP activity at 0.5 μM in murine-derived neurofibroma cells. After 24-hour starvation in 0.5% BSA/DMEM, Nf1−/− Schwann cells were pretreated with compound C20 at the indicated concentrations. Cells were then stimulated with 50 ng/mL PDGF for 2 minutes and harvested for immunoprecipitation and activity assays. FIG. 3B) Compound C20 specifically interfered with Rac1-Tiam1 interactions at 15 nM in a GEF assay using purified protein. FIG. 3C) In [^3H]-thymidine dose-inhibition experiments, murine derived Nf1−/− Schwann cells were pre-treated with increasing quantities of the known Rac1 inhibitor NSC23766 or with putative Rac1 inhibitor C20.

Ras-GTP = Ras-GTP activation; assay type: cell-based; details: data not shown
Excerpt: (§2) No effect of C20 on Ras-GTP activation or Akt phosphorylation was observed (data not shown). However, C20 mitigated Erk1/2 phosphorylation.

Rac1-Tiam1 interactions = molecular target: T2, Rac1-Tiam1 interactions (Homo sapiens, UniProt P63000); test: Rho-GEF exchange assay with purified Tiam1 and Rac1 (Cytoskeleton BK100 kit); assay type: biochemical
T2 construct: purchased Cytoskeleton, Inc. BK100
Protocol: as §1
Rho-GEF exchange experiments using a commercially available kit that measures guanine exchange fluorescence quantification (Cat #BK100; Cytoskeleton, Inc., Denver, Colo.) were conducted to measure GEF inhibition by C20.

Erk1/2 = Erk1/2 phosphorylation; assay type: cell-based
Excerpt: as §2

Akt = Akt phosphorylation; assay type: cell-based; details: data not shown
Excerpt: as §2

Nf1-/- Schwann cells = test: PDGF-mediated proliferation of NF1-deficient Schwann cells ([3H]-thymidine); assay type: cell-based, murine
Protocol: as §1
In initial screens assaying platelet derived growth factor (PDGF)-mediated proliferation in NF1-deficient Schwann cells, compound C20 (KM04569, Ryan Scientific) was identified. C20 inhibited Schwann cell proliferation at 2 μM and Rac1GTP activity at 0.5 μM (FIGS. 3A-C). The structure of C20 is shown below:
Several analogs of C20 were identified or synthesized and were then screened using the NF1−/− Schwann cell proliferation assay. The initial set of thirteen analogs were developed (Table 1; First SAR) by making substitutions in the C and D pharmacophore elements.

Rac1 = Rac1 (Homo sapiens, UniProt P63000); details: previous work; cited from earlier work
[1] = previous work; cited from earlier work

Q: What does the source list for `O=S(=O)(Oc1cc(Cl)cc(Cl)c1)c1ccc(-c2ccccn2)s1` [Compound C20]?
A: concentration inhibiting PDGF-mediated Rac1-GTP activity (Rac1-GTP): 0.5 µM; effect on Ras-GTP activation (Ras-GTP): No effect; concentration interfering with Rac1-Tiam1 interactions (Rac1-Tiam1 interactions; GEF assay using purified protein): 15 nM; GEF inhibition (Rac1-Tiam1 interactions; incubating Tiam1 and Rac1): dose-dependent GEF inhibition; effect on Erk1/2 phosphorylation (Erk1/2): mitigated; effect on Akt phosphorylation (Akt): No effect; IC50 (Nf1-/- Schwann cells; Mus musculus, murine derived Nf1-/- Schwann cells, approximate, read-out: IC50, [3H]-thymidine dose-inhibition): ~2000 nM; concentration inhibiting Schwann cell proliferation (Nf1-/- Schwann cells; PDGF-mediated proliferation, NF1-deficient Schwann cells): 2 µM

Q: With `CCn1c2ccccc2c2cc(Nc3ccnc(NCCCN4CCOCC4)n3)ccc21` [EHop-016] as the compound, how does the “concentration inhibiting Rac1” value (Rac1) read?
A: The value was 1.1 µM.

Q: With `CCN(CC)CCCC(C)Nc1nc(C)cc(Nc2ccc3nc(C)cc(N)c3c2)n1` (stereo not shown) [NSC23766] as the compound, how does the toxicity [1] read?
A: The toxicity was “high toxicity”.
